The nature of this series: Log of liquid dish neat product liquid-air partition coefficient. It is filed as physicochemical. Particulars: for Log of liquid dish neat product liquid-air partition coefficient (Comment Code): code letters K/L of the Comment Code.
Where [1] appears, read: code letter within the Comment Code cell.

Regarding `CC1=C2CCC3(C)OC3C2C(C)(C)CCC1` (stereo not shown) [Material 624], the “Comment Code: Log of liquid dish neat product liquid-air partition coefficient” value (“Comment Code: Log” below) is recorded as “K (Log of liquid dish neat product liquid-air partition coefficient greater than or equal to 7)” and the “Log of liquid dish neat product liquid-air partition coefficient (Comment Code)” value (“Log … (Comment Code)” for short) is on record as “K (Log of liquid dish neat product liquid-air partition coefficient greater than or equal to 7)”.
In the case of `CC(C)=C1CCC(C)(O)CC1` (stereo not shown) [Material 318], under setting [1], the “Log of liquid dish neat product liquid-air partition coefficient (Comment Code K/L)” value (shortened to “Log … (Comment Code K/L)”) is “K (Log of liquid dish neat product liquid-air partition coefficient greater than or equal to 7)”.
Regarding `CCCCCCCCCCCCCC(=O)OC` [Material 104], under setting [1], the “Log … (Comment Code K/L)” value is on record as “K (Log of liquid dish neat product liquid-air partition coefficient greater than or equal to 7)”.
As to `C=C(C)[C@@H]1CCC2=CC(=O)C[C@@H](C)[C@]2(C)C1` [Material 48], the “Comment Code: Log” value is given as “K (Log of liquid dish neat product liquid-air partition coefficient greater than or equal to 7)”. Besides, under setting [1], the “Log … (Comment Code K/L)” value was “K (Log of liquid dish neat product liquid-air partition coefficient greater than or equal to 7)”.
Turning to `OCCOc1ccccc1` [Material 834], the “Log … (Comment Code)” value was “K (Log of liquid dish neat product liquid-air partition coefficient greater than or equal to 7)”.
For `CC(=O)OC1CC2CC1C1CC=CC21` (stereo not shown) [Material 281], the “Comment Code: Log” value is reported as “K (Log of liquid dish neat product liquid-air partition coefficient greater than or equal to 7)”. Besides, the “Log … (Comment Code K/L)” value under setting [1] is reported as “K (Log of liquid dish neat product liquid-air partition coefficient greater than or equal to 7)”.
Turning to `CC=CC(=O)OC(C)C1CCCCC1` (stereo not shown) [Material 475], the “Log … (Comment Code K/L)” value under setting [1] is reported as “K (Log of liquid dish neat product liquid-air partition coefficient greater than or equal to 7)”.
On to `CC1C(=O)CC2(C)CCCC(C)(C)C23CC13` (stereo not shown) [Material 804], for which the “Comment Code: Log” value is “K (Log of liquid dish neat product liquid-air partition coefficient greater than or equal to 7)” and the “Log … (Comment Code)” value was “K (Log of liquid dish neat product liquid-air partition coefficient greater than or equal to 7)”.
For the molecule `CC/C=C\C/C=C/CCO` [Material 1072], the “Log … (Comment Code)” value is recorded as “K (Log of liquid dish neat product liquid-air partition coefficient greater than or equal to 7)”.
For the molecule `CC(=O)OC1(C)CCC(=C(C)C)CC1` (stereo not shown) [Material 317], under setting [1], the “Log … (Comment Code K/L)” value is on record as “K (Log of liquid dish neat product liquid-air partition coefficient greater than or equal to 7)”.
`CCC=CCC1C(=O)CCC1CC(=O)OC` (stereo not shown) [Material 112]: the “Log … (Comment Code K/L)” value under setting [1] is given as “K (Log of liquid dish neat product liquid-air partition coefficient greater than or equal to 7)”.
For `CC=C(C)C(=O)OCCC=CCC` [Material 274], the “Log … (Comment Code K/L)” value under setting [1] is reported as “K (Log of liquid dish neat product liquid-air partition coefficient greater than or equal to 7)”.
Turning to `CC(=O)OC1CC2C3C=CCC3C1C2(C)C` (stereo not shown) [Material 360], the “Comment Code: Log” value is on record as “K (Log of liquid dish neat product liquid-air partition coefficient greater than or equal to 7)”. The “Log … (Comment Code K/L)” value under setting [1] is on record as “K (Log of liquid dish neat product liquid-air partition coefficient greater than or equal to 7)”.
As to `CC(=O)OCCC1=CCC2CC1C2(C)C` (stereo not shown) [Material 47], under setting [1], the “Log … (Comment Code K/L)” value is “K (Log of liquid dish neat product liquid-air partition coefficient greater than or equal to 7)”.
With `CCCCCCCC1(C)OCC(C)O1` (stereo not shown) [Material 838], the “Comment Code: Log” value was “K (Log of liquid dish neat product liquid-air partition coefficient greater than or equal to 7)”.
For the molecule `C=CCCCCCCCCO` [Material 470], the “Log … (Comment Code K/L)” value under setting [1] was “K (Log of liquid dish neat product liquid-air partition coefficient greater than or equal to 7)”.
With `C=C(C)C1CC=C(C)C(OC(C)=O)C1` (stereo not shown) [Material 577], the “Log … (Comment Code)” value was “K (Log of liquid dish neat product liquid-air partition coefficient greater than or equal to 7)”.
Consider `CC(=CCCC1(C)C2CC3C(C2)C31C)CO` (stereo not shown) [Material 694], for which the “Comment Code: Log” value is “K (Log of liquid dish neat product liquid-air partition coefficient greater than or equal to 7)” and the “Log … (Comment Code)” value was “K (Log of liquid dish neat product liquid-air partition coefficient greater than or equal to 7)”.
For the molecule `CCC(=O)CCC1C(C)=CCCC1(C)C` (stereo not shown) [Material 293], the “Log … (Comment Code K/L)” value under setting [1] is listed as “K (Log of liquid dish neat product liquid-air partition coefficient greater than or equal to 7)”.
For the molecule `CCCCCCOC(=O)c1ccccc1` [Material 271], the “Log … (Comment Code K/L)” value under setting [1] is “K (Log of liquid dish neat product liquid-air partition coefficient greater than or equal to 7)”.
Regarding `C=CCOC(=O)CCC1CCCCC1` [Material 746], the “Log … (Comment Code)” value is reported as “K (Log of liquid dish neat product liquid-air partition coefficient greater than or equal to 7)”.
Turning to `C=C(C=O)C(C)CCC=C(C)C` (stereo not shown) [Material 819], the “Comment Code: Log” value is on record as “K (Log of liquid dish neat product liquid-air partition coefficient greater than or equal to 7)”.
Take `CCCCCCCCCCCCCCCC(=O)OC` [Material 109]: the “Log … (Comment Code K/L)” value under setting [1] is listed as “K (Log of liquid dish neat product liquid-air partition coefficient greater than or equal to 7)”.
In the case of `C=CC(=C)CCC=C(C)CCC=C(C)C=O` [Material 613], the “Log … (Comment Code)” value is “K (Log of liquid dish neat product liquid-air partition coefficient greater than or equal to 7)”.
Consider `CC(CO)C1CCCCCCCCCCC1` (stereo not shown) [Material 252], for which, under setting [1], the “Log … (Comment Code K/L)” value was “K (Log of liquid dish neat product liquid-air partition coefficient greater than or equal to 7)”.
Turning to `CC1C(C)(C)C2CCC3CC(C)(C)OC3C2C1(C)C` (stereo not shown) [Material 680], the “Comment Code: Log” value is on record as “K (Log of liquid dish neat product liquid-air partition coefficient greater than or equal to 7)” and the “Log … (Comment Code)” value is “K (Log of liquid dish neat product liquid-air partition coefficient greater than or equal to 7)”.
For the molecule `C=CC(C)=CCC=C(C)CCC=C(C)C=O` [Material 691], the “Log … (Comment Code)” value was “K (Log of liquid dish neat product liquid-air partition coefficient greater than or equal to 7)”.
As for `CC(C)=CCCC(C)c1ccc(C)cc1` (stereo not shown) [Material 713], the “Log … (Comment Code)” value is “K (Log of liquid dish neat product liquid-air partition coefficient greater than or equal to 7)”.
With `CC(=O)CCc1ccccc1` [Material 640], the “Comment Code: Log” value is “K (Log of liquid dish neat product liquid-air partition coefficient greater than or equal to 7)”.
On to `CCCCCCCCCCC=O` [Material 1102], for which the “Log … (Comment Code)” value is reported as “K (Log of liquid dish neat product liquid-air partition coefficient greater than or equal to 7)”.
Consider `C=CC(=C)CCCC(C)(C)O` [Material 34], for which, under setting [1], the “Log … (Comment Code K/L)” value was “K (Log of liquid dish neat product liquid-air partition coefficient greater than or equal to 7)”.
In the case of `CC1=CC[C@@H]2C3CC([C@@H]2C1)[C@@]1(C3)OC1C` (stereo partly shown) [Material 1007], the “Comment Code: Log” value is “K (Log of liquid dish neat product liquid-air partition coefficient greater than or equal to 7)” and the “Log … (Comment Code)” value was “K (Log of liquid dish neat product liquid-air partition coefficient greater than or equal to 7)”.
For the molecule `CC(=O)c1oc2ccccc2c1C` [Material 61], under setting [1], the “Log … (Comment Code K/L)” value is listed as “K (Log of liquid dish neat product liquid-air partition coefficient greater than or equal to 7)”.
The same measure, in the same setting: then `CC/C=C\CCOC(=O)C/C=C\CC` [Material 534], with “K (Log of liquid dish neat product liquid-air partition coefficient greater than or equal to 7)”.
Turning to `O=C(O)CCc1ccccc1` [Material 255], the “Comment Code: Log” value is “K (Log of liquid dish neat product liquid-air partition coefficient greater than or equal to 7)”.
On to `CC(O)CCc1ccccc1` (stereo not shown) [Material 98], for which the “Log … (Comment Code K/L)” value under setting [1] was “K (Log of liquid dish neat product liquid-air partition coefficient greater than or equal to 7)”.
Take `CC(C=O)=CCC1C(C)=CCCC1(C)C` (stereo not shown) [Material 1116]: for the setting “Comment Code letters K and/or L”, the “Log … (Comment Code K/L)” value is reported as “K (Log of liquid dish neat product liquid-air partition coefficient greater than or equal to 7)”.
With `C/C=C\c1ccc(O)c(OC)c1` [Material 528], the “Comment Code: Log” value was “K (Log of liquid dish neat product liquid-air partition coefficient greater than or equal to 7)”.
Regarding `COC1CCCCCCCCCCC1` [Material 9], under setting [1], the “Log … (Comment Code K/L)” value is “K (Log of liquid dish neat product liquid-air partition coefficient greater than or equal to 7)”.
For the molecule `COC(C=C(C)CCC=C(C)C)OC` [Material 520], the “Log … (Comment Code K/L)” value under setting [1] was “K (Log of liquid dish neat product liquid-air partition coefficient greater than or equal to 7)”.
Take `CC(C)=CCC/C(C)=C/CO` [Material 1082]: the “Log … (Comment Code)” value is recorded as “K (Log of liquid dish neat product liquid-air partition coefficient greater than or equal to 7)”.
For `CC(=O)OC12CCCC(C)(CCC3C1CC3(C)C)C2` (stereo not shown) [Material 573], the “Comment Code: Log” value is “K (Log of liquid dish neat product liquid-air partition coefficient greater than or equal to 7)” and the “Log … (Comment Code)” value is given as “K (Log of liquid dish neat product liquid-air partition coefficient greater than or equal to 7)”.
With `C=C(C)C1CCC(C)(O)CC1` (stereo not shown) [Material 612], the “Log … (Comment Code)” value is reported as “K (Log of liquid dish neat product liquid-air partition coefficient greater than or equal to 7)”.
